These results are taken from patent US20140045826A1, “METHODS AND COMPOSITIONS FOR TREATING NEURODEGENERATIVE DISEASES” (ARIAD PHARMACEUTICALS, INC., priority 2011, published 2014).

For data set [1] the following is noted: mice and humans; cited from earlier work.
The target in a further data set is TYK1 (Homo sapiens, UniProt P29376). Put plainly: in vitro kinase assay. Format: biochemical.
In the next data set the target is T1, ITK (Homo sapiens, UniProt Q08881).
T1 sequence (Q08881 1-620): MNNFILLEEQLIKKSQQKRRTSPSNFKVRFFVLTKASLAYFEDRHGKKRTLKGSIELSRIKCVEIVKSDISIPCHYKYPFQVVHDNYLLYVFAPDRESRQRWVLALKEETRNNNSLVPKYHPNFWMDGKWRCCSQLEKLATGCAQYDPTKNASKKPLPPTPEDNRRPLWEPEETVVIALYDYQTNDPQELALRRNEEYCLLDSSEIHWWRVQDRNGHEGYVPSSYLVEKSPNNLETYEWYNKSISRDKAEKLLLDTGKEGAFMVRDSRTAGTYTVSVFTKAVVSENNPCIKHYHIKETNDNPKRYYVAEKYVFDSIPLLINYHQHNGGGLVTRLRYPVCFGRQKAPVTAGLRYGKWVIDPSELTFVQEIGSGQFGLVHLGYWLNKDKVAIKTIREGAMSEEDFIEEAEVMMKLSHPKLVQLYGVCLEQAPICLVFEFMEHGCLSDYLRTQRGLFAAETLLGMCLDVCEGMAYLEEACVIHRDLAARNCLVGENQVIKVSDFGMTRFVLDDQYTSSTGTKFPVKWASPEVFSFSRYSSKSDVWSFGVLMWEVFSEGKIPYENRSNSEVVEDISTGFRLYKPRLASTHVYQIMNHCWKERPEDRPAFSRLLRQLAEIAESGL
Put plainly: in vitro kinase assay. In kind it is biochemical.

Another data set has as its target IRR (Homo sapiens, UniProt P14616). Put plainly: in vitro kinase assay. Format: biochemical.
The next data set addresses ROS (Homo sapiens, UniProt P08922). As to the kind of experiment: in vitro kinase assay. In kind it is biochemical.
In the next data set the target is T2, Aurora C (Homo sapiens, UniProt Q9UQB9).
T2 sequence (Q9UQB9 1-309): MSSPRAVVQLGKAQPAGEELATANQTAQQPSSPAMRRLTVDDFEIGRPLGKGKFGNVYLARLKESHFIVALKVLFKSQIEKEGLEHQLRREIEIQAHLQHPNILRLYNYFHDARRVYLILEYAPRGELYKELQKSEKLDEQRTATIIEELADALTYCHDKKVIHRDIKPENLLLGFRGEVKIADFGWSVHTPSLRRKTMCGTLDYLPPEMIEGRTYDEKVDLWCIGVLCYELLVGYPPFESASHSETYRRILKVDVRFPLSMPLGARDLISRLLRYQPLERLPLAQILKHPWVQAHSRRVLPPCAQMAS
Put plainly: in vitro kinase assay. In kind it is biochemical.

Another data set deals with mTOR (Homo sapiens, UniProt P42345). Put plainly: in vitro kinase assay. Format: biochemical.
The target of another data set is T3, ZAP70 (Homo sapiens, UniProt P43403).
T3 sequence (P43403 1-619): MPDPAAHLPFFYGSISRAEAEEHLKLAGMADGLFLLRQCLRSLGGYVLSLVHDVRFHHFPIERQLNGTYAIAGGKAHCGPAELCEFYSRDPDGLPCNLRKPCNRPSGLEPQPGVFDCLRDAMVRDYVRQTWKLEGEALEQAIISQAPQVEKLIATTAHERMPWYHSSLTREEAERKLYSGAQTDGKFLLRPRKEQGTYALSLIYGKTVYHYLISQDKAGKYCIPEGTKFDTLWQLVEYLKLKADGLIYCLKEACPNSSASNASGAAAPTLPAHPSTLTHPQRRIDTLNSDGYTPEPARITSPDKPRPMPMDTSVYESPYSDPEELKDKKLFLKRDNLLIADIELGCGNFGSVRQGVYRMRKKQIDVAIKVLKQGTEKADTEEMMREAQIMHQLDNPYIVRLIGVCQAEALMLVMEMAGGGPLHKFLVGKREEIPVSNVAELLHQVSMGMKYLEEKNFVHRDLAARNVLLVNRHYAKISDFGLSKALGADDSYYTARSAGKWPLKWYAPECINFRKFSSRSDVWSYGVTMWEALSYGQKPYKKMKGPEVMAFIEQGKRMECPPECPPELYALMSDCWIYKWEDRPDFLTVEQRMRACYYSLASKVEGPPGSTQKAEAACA
As to the kind of experiment: in vitro kinase assay. Format: biochemical.

Another data set concerns the target T4, AXL (Homo sapiens, UniProt P30530).
T4 sequence (P30530 26-894): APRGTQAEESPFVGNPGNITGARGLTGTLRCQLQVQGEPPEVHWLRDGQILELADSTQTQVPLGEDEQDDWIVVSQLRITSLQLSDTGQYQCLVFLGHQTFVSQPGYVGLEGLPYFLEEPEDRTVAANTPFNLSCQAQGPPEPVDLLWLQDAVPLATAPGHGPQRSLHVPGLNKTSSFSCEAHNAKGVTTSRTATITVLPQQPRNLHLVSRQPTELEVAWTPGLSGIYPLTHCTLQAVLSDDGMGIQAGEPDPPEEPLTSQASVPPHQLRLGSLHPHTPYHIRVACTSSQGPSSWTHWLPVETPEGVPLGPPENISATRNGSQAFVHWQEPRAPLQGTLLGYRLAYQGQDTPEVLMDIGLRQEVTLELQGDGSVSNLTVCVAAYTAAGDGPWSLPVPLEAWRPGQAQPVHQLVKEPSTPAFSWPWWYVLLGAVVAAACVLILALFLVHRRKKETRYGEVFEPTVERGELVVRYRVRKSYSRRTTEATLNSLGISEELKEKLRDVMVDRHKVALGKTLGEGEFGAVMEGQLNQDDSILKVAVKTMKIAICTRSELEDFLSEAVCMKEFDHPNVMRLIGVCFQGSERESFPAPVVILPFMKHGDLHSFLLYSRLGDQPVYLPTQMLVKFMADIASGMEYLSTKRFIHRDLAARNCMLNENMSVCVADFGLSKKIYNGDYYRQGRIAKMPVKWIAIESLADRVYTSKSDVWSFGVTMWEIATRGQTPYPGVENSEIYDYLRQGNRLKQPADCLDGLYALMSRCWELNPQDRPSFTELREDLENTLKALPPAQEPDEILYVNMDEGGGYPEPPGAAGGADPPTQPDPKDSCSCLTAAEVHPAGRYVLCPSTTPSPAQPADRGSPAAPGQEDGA
Put plainly: in vitro kinase assay. In kind it is biochemical.

For a further data set, the target named is T5, CTK (Homo sapiens, UniProt P42679).
T5 sequence (P42679 1-507): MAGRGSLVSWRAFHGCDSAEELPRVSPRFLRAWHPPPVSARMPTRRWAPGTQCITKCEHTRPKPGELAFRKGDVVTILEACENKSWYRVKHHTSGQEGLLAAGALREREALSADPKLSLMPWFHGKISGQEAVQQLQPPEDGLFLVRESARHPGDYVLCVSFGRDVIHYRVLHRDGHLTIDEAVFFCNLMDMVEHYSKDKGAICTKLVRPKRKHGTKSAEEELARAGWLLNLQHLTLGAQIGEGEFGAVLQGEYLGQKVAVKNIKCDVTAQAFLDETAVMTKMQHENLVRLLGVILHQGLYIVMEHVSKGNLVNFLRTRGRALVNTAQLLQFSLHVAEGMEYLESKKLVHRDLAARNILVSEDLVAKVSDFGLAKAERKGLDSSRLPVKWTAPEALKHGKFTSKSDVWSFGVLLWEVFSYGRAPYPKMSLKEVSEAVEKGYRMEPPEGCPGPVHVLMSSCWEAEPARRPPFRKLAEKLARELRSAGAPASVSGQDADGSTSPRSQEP
As to the kind of experiment: in vitro kinase assay. Format: biochemical.

The target in a further data set is ALK (Homo sapiens, UniProt Q9UM73). Put plainly: in vitro kinase assay. Format: biochemical.
The nature of the next data set: in vivo. As to conditions: rat, plasma, po, 5 mg/kg.
The next data set addresses PKC8. As to the kind of experiment: in vitro kinase assay. Format: biochemical.
The nature of data set [2]: phase 1 clinical trial, safety and tolerability.
In another data set the target is PGP efflux pump (Homo sapiens, UniProt P08183). Put plainly: substrate for the PGP efflux pump.
Sequence of PGP efflux pump (P08183 whole entry): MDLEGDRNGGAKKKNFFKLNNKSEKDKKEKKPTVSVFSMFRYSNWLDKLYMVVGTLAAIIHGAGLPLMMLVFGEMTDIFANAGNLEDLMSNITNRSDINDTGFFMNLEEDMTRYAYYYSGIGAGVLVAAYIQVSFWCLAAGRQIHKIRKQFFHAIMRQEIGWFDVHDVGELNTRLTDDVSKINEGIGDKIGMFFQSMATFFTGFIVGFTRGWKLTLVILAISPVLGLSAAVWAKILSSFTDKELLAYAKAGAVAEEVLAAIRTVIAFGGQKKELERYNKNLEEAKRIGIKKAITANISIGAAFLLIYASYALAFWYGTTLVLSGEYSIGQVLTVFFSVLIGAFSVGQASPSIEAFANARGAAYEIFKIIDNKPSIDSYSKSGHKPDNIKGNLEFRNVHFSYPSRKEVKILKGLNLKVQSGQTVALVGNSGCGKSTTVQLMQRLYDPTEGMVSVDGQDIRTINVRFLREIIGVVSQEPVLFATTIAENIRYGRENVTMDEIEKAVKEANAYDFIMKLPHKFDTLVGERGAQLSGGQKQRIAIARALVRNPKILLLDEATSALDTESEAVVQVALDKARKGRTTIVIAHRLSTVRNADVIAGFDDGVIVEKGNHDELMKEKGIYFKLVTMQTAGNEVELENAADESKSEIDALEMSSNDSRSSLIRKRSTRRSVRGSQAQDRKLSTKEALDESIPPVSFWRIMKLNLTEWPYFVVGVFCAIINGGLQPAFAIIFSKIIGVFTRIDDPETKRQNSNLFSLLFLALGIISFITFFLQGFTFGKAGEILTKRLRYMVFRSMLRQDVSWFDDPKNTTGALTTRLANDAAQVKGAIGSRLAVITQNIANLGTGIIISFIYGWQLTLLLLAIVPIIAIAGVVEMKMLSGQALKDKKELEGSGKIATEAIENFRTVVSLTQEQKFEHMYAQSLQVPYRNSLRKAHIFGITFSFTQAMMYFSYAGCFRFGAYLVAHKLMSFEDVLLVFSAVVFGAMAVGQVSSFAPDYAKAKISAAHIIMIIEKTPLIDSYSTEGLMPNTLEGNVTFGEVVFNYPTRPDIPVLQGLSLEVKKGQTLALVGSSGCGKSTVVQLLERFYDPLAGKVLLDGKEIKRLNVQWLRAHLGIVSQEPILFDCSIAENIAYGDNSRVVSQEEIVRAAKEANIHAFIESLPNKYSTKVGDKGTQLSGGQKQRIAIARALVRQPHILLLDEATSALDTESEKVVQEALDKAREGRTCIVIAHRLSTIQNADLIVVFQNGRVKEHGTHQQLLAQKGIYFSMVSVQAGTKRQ

Sequence of ALK (Q9UM73 19-1620): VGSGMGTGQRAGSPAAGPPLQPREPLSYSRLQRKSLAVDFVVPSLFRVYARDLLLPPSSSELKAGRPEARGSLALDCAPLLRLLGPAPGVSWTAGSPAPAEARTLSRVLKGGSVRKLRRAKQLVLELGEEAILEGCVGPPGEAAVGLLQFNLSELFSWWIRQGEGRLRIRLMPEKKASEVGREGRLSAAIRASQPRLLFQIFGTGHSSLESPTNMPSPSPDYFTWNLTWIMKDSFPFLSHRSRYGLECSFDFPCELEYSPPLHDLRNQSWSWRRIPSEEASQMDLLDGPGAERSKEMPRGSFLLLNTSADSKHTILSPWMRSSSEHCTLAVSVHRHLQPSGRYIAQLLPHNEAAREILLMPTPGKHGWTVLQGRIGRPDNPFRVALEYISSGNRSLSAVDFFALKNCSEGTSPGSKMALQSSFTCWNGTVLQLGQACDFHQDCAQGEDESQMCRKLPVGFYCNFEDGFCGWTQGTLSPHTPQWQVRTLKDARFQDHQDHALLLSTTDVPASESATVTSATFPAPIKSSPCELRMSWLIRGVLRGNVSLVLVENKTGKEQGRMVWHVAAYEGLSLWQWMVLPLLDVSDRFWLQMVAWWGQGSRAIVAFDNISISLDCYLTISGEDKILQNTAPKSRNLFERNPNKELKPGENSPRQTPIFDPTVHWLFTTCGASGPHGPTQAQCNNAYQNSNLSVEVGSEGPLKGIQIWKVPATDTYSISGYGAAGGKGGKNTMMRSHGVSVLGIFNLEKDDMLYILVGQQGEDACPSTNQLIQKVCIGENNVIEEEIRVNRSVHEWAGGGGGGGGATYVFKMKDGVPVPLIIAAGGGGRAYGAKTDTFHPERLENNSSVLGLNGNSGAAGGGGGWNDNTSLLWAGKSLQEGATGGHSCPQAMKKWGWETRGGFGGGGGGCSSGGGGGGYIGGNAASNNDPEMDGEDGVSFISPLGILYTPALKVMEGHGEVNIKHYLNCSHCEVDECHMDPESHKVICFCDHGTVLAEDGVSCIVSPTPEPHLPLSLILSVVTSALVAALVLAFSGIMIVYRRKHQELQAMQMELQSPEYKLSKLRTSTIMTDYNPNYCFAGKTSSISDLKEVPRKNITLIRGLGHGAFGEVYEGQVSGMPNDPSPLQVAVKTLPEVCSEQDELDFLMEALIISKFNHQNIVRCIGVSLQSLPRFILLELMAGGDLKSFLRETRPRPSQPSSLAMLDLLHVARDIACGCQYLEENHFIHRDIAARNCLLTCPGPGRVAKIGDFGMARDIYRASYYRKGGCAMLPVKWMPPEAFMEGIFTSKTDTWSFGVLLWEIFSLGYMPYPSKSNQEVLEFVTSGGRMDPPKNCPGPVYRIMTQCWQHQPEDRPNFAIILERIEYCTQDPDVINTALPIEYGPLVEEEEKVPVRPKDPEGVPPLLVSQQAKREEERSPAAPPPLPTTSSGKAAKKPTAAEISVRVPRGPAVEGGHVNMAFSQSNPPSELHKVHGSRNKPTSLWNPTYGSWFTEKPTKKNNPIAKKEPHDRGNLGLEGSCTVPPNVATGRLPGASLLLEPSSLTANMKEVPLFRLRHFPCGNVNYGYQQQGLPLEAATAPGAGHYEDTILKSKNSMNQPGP
Sequence of TYK1 (P29376 17-864, species assumed): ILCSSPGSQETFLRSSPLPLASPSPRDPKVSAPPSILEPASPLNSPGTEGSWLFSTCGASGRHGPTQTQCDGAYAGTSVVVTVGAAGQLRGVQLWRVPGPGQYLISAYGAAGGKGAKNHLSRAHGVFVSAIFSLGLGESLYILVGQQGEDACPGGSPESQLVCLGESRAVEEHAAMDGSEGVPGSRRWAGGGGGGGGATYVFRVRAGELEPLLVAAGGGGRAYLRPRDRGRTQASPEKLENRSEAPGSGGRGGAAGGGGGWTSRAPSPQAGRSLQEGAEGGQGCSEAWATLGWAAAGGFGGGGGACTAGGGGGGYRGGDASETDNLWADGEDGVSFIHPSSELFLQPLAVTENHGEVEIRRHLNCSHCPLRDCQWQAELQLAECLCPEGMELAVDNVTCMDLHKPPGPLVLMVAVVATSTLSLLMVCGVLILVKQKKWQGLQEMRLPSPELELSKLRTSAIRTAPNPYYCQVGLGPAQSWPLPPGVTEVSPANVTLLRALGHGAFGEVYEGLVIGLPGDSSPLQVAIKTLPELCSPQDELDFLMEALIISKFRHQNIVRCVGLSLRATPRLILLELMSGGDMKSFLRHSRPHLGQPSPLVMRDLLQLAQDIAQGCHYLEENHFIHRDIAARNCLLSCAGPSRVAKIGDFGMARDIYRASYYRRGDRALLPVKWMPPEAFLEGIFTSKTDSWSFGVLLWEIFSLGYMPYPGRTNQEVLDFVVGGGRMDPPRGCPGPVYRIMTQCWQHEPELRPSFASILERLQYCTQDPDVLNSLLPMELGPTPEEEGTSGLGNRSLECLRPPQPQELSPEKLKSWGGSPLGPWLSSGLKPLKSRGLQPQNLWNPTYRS
Sequence of IRR (P14616 27-1297): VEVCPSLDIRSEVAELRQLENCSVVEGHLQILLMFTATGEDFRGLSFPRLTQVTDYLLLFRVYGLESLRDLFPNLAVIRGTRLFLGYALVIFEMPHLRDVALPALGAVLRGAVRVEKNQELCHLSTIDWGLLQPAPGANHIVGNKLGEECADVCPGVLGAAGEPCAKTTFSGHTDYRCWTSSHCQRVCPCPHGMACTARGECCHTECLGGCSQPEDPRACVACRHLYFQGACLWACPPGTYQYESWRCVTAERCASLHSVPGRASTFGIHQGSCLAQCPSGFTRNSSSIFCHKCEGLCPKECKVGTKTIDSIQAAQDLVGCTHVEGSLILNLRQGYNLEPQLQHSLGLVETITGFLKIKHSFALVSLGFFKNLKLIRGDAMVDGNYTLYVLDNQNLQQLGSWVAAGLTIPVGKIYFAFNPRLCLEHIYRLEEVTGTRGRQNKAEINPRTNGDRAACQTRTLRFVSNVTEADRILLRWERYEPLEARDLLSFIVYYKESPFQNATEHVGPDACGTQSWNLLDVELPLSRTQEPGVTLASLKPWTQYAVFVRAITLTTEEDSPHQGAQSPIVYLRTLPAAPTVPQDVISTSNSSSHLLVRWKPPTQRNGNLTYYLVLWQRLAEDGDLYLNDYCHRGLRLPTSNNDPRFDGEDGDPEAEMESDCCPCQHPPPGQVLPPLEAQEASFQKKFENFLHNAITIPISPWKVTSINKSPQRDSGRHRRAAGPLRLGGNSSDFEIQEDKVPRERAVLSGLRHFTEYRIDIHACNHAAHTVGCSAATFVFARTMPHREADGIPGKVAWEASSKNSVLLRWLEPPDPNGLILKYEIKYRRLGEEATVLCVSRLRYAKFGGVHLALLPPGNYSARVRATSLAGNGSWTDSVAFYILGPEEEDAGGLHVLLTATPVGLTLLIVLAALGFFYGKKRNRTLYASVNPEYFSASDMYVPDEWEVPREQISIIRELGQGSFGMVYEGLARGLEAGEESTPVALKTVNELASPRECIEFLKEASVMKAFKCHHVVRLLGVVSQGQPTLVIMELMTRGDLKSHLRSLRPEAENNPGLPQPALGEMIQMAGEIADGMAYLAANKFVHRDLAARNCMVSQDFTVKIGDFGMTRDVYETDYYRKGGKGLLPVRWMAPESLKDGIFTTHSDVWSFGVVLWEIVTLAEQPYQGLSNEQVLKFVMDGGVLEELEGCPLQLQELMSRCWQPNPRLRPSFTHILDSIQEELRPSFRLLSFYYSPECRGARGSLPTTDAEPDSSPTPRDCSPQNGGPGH

For the molecule `Cc1ccc(NC(=O)c2ccc(CN3CCN(C)CC3)cc2)cc1Nc1nccc(-c2cccnc2)n1` [STI-571], the “penetration of the blood-brain barrier” value in [1] is “poor penetration of the blood-brain barrier”.
On to `Cc1ccc(C(=O)Nc2ccc(CN3CCN(C)CC3)c(C(F)(F)F)c2)cc1C#Cc1cnc2cccnn12` [ponatinib, 3-(Imidazo[1,2-b]pyridazin-3-ylethynyl)-4-methyl-N-(4-((4-methylpiperazin-1-yl)methyl)-3-(trifluoromethyl)phenyl)benzamide], for which the half-maximal inhibitory concentration (IC50) on TYK1, against ITK, on IRR, on ROS, at Aurora C and against mTOR was > 1000 nM throughout. The IC50 against ZAP70, against AXL, at CTK, against ALK and at PKC8 was > 1000 nM throughout. In “in vivo”, this molecule gave a Cmax of 175 ng/mL. In addition, the “dose limiting toxicities (DLTs)” value in [2] (45 mg cohort) is recorded as “a reversible rash was seen with one patient”; in [2] (60 mg cohort), “four patients developed reversible pancreatic related DLT (pancreatitis)”; in data set [2] (2 to 30 mg cohorts), “no dose limiting toxicities (DLTs) were observed”. Also, the “maximum tolerated dose (MTD)” value in data set [2] (patients with refractory hematological cancers, oral, dose escalation 2-60 mg) is 45 mg. Further, the “drug-related adverse events of any grade: anemia” value in [2] (phase 1 patients) is on record as 12%. In addition, the “drug-related adverse events of any grade: lipase increase” value in data set [2] (phase 1 patients) stood at 12%. Moreover, in data set [2] (phase 1 patients), the “drug-related adverse events of any grade: nausea” value came out at 12%. Moreover, the “drug-related adverse events of any grade: rash” value in [2] (phase 1 patients) was found to be 12%. In addition, in [2] (phase 1 patients), the “drug-related adverse events of any grade: thrombocytopenia” value came to 25%. Moreover, the tolerability entry in [2] (phase 1 study conclusion) is reported as “well tolerated”. Moreover, the “substrate for the PGP efflux pump” value on PGP efflux pump was “poor substrate”.

A word on the IC50: it is the midpoint of a concentration-inhibition curve. Read a high IC50 as lower potency. As usually defined, the Cmax is the maximum level reached in the sampled fluid or tissue.
